Assay results published in publication PMC7933325, “Neolignans and Norlignans from Insect Medicine Polyphaga plancyi and Their Biological Activities” (Natural Products and Bioprospecting, 2020).

Key:
Assay in all cases: kinase inhibition assay (method cited to earlier paper)
Format in all cases: biochemical
JAK3 = biological target: T1, JAK3 (Homo sapiens, UniProt P52333)
T1 sequence (P52333 1-1124): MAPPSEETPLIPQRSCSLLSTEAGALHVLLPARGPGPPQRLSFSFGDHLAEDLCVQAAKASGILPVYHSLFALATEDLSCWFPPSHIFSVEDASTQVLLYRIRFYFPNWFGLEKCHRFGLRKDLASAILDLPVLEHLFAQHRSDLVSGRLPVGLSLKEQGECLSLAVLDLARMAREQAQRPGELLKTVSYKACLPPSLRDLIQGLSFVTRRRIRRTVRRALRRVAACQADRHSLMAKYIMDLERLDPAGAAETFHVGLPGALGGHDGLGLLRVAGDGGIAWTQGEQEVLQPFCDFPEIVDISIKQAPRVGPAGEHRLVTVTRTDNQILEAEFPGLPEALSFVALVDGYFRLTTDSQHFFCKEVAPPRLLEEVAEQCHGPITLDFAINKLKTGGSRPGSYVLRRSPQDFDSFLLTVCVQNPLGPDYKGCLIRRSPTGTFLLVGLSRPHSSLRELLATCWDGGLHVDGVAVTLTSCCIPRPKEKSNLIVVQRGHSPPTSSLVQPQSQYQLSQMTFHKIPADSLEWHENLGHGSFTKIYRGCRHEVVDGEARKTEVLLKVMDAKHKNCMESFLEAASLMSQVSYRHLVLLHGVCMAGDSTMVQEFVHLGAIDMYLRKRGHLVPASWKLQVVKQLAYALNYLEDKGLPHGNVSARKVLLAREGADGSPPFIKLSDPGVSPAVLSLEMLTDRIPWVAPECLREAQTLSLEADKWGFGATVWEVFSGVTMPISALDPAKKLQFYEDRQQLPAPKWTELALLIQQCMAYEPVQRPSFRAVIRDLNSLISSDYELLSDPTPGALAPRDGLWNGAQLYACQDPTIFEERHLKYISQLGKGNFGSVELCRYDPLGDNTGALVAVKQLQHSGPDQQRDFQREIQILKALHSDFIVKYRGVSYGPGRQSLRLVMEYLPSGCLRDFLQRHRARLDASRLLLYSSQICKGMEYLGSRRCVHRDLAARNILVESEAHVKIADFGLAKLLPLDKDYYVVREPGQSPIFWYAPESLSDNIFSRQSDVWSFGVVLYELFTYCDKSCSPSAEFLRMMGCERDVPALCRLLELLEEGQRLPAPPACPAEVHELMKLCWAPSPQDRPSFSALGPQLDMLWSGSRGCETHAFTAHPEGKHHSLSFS

ROCK2 = ROCK2 (Homo sapiens, UniProt O75116)
DDR1 = DDR1 (Homo sapiens, UniProt Q08345)
Chain of DDR1 (Q08345 19-913): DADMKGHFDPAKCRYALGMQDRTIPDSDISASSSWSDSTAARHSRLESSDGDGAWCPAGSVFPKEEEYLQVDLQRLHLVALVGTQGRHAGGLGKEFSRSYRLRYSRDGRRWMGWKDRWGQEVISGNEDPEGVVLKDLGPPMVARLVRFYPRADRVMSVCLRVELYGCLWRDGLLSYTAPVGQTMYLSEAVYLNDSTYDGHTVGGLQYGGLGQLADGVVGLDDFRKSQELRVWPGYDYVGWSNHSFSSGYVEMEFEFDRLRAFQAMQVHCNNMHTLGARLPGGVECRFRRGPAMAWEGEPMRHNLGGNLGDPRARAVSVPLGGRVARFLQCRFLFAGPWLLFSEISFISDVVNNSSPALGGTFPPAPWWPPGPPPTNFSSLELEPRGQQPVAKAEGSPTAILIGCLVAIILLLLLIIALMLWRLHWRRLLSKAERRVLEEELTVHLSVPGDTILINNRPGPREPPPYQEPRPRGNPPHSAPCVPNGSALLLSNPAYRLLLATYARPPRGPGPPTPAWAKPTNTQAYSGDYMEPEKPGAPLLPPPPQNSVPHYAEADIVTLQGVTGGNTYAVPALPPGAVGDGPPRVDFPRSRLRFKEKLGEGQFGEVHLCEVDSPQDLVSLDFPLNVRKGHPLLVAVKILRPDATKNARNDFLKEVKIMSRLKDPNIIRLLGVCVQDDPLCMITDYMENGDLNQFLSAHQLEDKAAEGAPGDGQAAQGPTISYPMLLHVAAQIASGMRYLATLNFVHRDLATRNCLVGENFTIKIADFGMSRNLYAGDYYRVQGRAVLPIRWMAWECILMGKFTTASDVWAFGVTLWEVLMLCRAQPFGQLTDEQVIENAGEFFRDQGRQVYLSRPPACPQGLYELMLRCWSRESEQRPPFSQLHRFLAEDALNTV

Chain of ROCK2 (O75116 whole entry): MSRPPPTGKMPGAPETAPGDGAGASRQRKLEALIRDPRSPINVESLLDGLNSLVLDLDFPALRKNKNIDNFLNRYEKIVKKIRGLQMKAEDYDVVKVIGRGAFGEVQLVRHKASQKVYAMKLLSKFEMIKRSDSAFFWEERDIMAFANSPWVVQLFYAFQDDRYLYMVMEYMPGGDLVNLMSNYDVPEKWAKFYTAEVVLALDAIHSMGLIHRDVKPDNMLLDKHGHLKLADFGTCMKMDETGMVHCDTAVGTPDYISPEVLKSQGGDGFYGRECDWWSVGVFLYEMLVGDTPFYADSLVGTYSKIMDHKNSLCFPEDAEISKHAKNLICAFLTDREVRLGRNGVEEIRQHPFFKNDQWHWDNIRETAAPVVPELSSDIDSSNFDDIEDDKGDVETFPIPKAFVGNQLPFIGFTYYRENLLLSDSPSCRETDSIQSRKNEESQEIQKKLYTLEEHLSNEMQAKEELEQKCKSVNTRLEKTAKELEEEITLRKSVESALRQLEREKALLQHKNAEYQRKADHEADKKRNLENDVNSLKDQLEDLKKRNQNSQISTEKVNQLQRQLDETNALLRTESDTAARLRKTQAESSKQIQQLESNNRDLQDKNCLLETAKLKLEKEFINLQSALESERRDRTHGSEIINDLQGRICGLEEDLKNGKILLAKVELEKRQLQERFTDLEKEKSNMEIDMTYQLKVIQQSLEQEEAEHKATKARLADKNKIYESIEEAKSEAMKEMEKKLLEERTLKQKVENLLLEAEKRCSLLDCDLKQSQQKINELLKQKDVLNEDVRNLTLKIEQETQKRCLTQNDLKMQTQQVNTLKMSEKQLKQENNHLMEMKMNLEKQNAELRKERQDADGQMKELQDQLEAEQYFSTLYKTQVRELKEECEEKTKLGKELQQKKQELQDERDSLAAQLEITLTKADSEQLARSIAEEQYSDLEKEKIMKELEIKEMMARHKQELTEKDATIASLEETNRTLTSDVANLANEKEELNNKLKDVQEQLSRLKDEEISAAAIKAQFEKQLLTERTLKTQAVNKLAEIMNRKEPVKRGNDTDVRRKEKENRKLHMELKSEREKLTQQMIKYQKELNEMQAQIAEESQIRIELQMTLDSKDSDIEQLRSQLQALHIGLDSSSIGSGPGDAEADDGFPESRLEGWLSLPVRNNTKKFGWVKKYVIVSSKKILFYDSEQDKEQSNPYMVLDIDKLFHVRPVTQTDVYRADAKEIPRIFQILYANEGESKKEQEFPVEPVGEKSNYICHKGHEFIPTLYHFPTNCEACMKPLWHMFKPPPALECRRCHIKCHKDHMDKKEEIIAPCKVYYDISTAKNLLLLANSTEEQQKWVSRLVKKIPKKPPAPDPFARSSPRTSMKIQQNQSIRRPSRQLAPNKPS

Row | IC50 (JAK3) [µM] | IC50 (ROCK2) [µM] | IC50 (DDR1) [µM] | SMILES
1 | 9.17 | 27.1 | – | Cc1ccc(O)c(-c2cc(CC(=O)O)ccc2O)c1 [compound 6, Plancyin F]
2 | 4.59 | – | 22.9 | OC[C@@H]1OC[C@@H](c2ccc(O)c(O)c2)c2cc(O)c(O)cc21 (stereo in doubt) [(−)-9, (−)-Periplanol A]
3 | 9.35 | – | 23.9 | OC[C@H]1OC[C@H](c2ccc(O)c(O)c2)c2cc(O)c(O)cc21 (stereo in doubt) [(+)-9, (+)-Periplanol A]
